# According to patent US5998362A, “Conjugates useful in the treatment of prostate cancer” (priority 1997, dated 1999):
# Where a SMILES comes first, the peptide text is derived from it. [ ]: non-standard residue; d: D form. The star is where a group is joined. Glyceroyl(2S) = O=C([C@@H](O)CO)*; hArg = N=C(N)NCCCC[C@H](N)C(=O)O; Chg = N[C@H](C(=O)O)C1CCCCC1; hSer = N[C@@H](CCO)C(=O)O; Nle = CCCC[C@H](N)C(=O)O; Glycolyl = O=C(CO)*; X3 = O=C(C(O)CO)*
# Molecular target: free PSA (Homo sapiens, UniProt P07288)
# Sequence (P07288 25-261): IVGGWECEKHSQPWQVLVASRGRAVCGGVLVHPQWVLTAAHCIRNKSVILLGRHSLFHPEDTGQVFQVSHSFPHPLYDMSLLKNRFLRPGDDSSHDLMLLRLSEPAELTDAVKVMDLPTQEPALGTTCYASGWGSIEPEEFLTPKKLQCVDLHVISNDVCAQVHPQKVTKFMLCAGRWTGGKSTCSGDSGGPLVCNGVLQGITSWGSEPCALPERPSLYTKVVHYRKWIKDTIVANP
# Experiment: Recognition of oligopeptides by free PSA (time to 50% cleavage, HPLC)
# Settings: free psa; for Time to 50% Substrate Cleavage by York PSA: pH 8
# Protocol: The oligopeptides prepared as described in Example 1 were individually dissolved in PSA digestion buffer (12 mM tris(hydroxymethyl)-aminomethane pH8.0, 25 mM NaCl, 0.5 mM CaCl2) and the solution added to PSA at a molar ration of 100 to 1. The reaction is quenched after various reaction times by the addition of trifluoroacetic acid (TFA) to a final 1% (volume/volume). The quenched reaction was analyzed by HPLC on a reversed-phase C18 column using an aqueous 0.1% TFA/acetonitrile gradient. […] Oligopeptides containing free amine moieties (ie. comprising hArg, Orn, Lys and or 3PAL) were tested as TFA salts. All other oligopeptides were tested as neutral compounds.
SMILES,"Time to 50% Substrate Cleavage by York PSA (Min), values marked *",Time to 50% Substrate Cleavage by York PSA
"CC(C)C[C@H](NC(=O)[C@H](CO)NC(=O)[C@H](CCC(N)=O)NC(=O)[C@@H](NC(=O)[C@H](CO)NC(=O)[C@H](CO)NC(=O)[C@H](CCCCNC(=N)N)NC(=O)[C@@H](O)CO)C1CCCCC1)C(=O)O [2(S)2,3-dihydroxypropionly-hRSSChgQ-SL-acid] ({Glyceroyl(2S)}-[hArg]SS[Chg]QSL-OH)",25 min,
"CC(C)C[C@H](NC(=O)[C@H](CO)NC(=O)[C@H](CCC(N)=O)NC(=O)[C@@H](NC(=O)[C@H](CCCCNC(=N)N)NC(=O)[C@H](CO)NC(=O)[C@@H](O)CO)C1CCCCC1)C(=O)O [2(S)-2,3-dihydroxy propionylShRChgQSL-acid] ({Glyceroyl(2S)}-S[hArg][Chg]QSL-OH)",35 min,
"CC(C)C[C@H](NC(=O)[C@H](CO)NC(=O)[C@H](CCC(N)=O)NC(=O)[C@@H](NC(=O)[C@H](CO)NC(=O)[C@H](CO)NC(=O)CNC(=O)C(O)CO)C1CCCCC1)C(=O)O (stereo partly drawn) [2,3-dihydroxypropionyl-GSSChgQ-SL-acid] (X3-GSS[Chg]QSL-OH)",,160 min
"CC(C)C[C@H](NC(=O)[C@H](CO)NC(=O)[C@H](CCC(N)=O)NC(=O)[C@@H](NC(=O)[C@H](CO)NC(=O)[C@H](CO)NC(=O)[C@H](CO)NC(=O)C(O)CO)C1CCCCC1)C(=O)O (stereo partly drawn) [2,3-dihydroxypropionyl-SSSChgQ-SL-acid] (X3-SSS[Chg]QSL-OH)",,120 min
"CC(C)C[C@H](NC(=O)[C@H](CO)NC(=O)[C@H](CCC(N)=O)NC(=O)[C@@H](NC(=O)[C@H](CO)NC(=O)[C@H](CO)NC(=O)[C@H](CCCCNC(=N)N)NC(=O)C(O)CO)C1CCCCC1)C(=O)O (stereo partly drawn) [2,3-dihydroxypropionyl-hRSSChgQ-SL-acid] (X3-[hArg]SS[Chg]QSL-OH)",,50 min
"CC(C)C[C@H](NC(=O)[C@H](CO)NC(=O)[C@H](CCC(N)=O)NC(=O)[C@@H](NC(=O)[C@H](CO)NC(=O)[C@H](CO)NC(=O)[C@H](CCO)NC(=O)C(O)CO)C1CCCCC1)C(=O)O (stereo partly drawn) [2,3-dihydroxypropionyl-hSSSChgQ-SL-acid] (X3-[hSer]SS[Chg]QSL-OH)",,160 min
"CC(C)C[C@H](NC(=O)[C@H](CO)NC(=O)[C@H](CCC(N)=O)NC(=O)[C@@H](NC(=O)[C@H](CCCCNC(=N)N)NC(=O)[C@H](CO)NC(=O)C(O)CO)C1CCCCC1)C(=O)O (stereo partly drawn) [2,3-dihydroxypropionylShRChgQ-SL-acid] (X3-S[hArg][Chg]QSL-OH)",,75 min
CC(C)C[C@H](NC(=O)[C@H](CO)NC(=O)[C@H](CCC(N)=O)NC(=O)[C@@H](NC(=O)[C@H](CO)NC(=O)[C@H](CO)NC(=O)CO)C1CCCCC1)C(=O)O [2-hydroxyacetyl-SSChgQ-SL-acid] (Glycolyl-SS[Chg]QSL-OH),,180 min
CC(C)C[C@H](NC(=O)[C@H](CO)NC(=O)[C@H](CCC(N)=O)NC(=O)[C@@H](NC(=O)[C@H](CCCCNC(=N)N)NC(=O)[C@H](CO)NC(=O)CO)C1CCCCC1)C(=O)O [2-hydroxyacetyl-ShRChgQ-SL-acid] (Glycolyl-S[hArg][Chg]QSL-OH),30 min,120 min
CC(C)C[C@H](NC(=O)[C@H](CO)NC(=O)[C@H](CCC(N)=O)NC(=O)[C@@H](NC(=O)[C@H](CO)NC(=O)[C@H](C)NC(=O)[C@H](CCCCNC(=N)N)NC(=O)CO)C1CCCCC1)C(=O)O [2-hydroxyacetyl-hRASChgQ-SL-acid] (Glycolyl-[hArg]AS[Chg]QSL-OH),,70 min
CCCC[C@H](NC(=O)[C@H](CO)NC(=O)[C@H](CCC(N)=O)NC(=O)[C@H](Cc1ccc(O)cc1)NC(=O)[C@H](CO)NC(=O)[C@H](CO)NC(=O)[C@H](CCCCNC(=N)N)NC(=O)CO)C(=O)O [2-hydroxyacetyl-hRSSYQ-SNle-acid] (Glycolyl-[hArg]SSYQS[Nle]-OH),,45 min
